{
  "source": "patent US20090305894A1",
  "about": "“use of sulfonanilides as herbicide” (priority 2005, published 2009)",
  "format_in_all_cases": "in vivo",
  "key": {"[1]": {"system": "paddy rice seedlings (cultivar: Nihonbare)", "experiment": "Herbicide damage on transplanted paddy rice (Test Example 2, Table 9)", "conditions": "60 g ai/ha, applied to water surface 5 days after transplantation, rated after 3 weeks; 100% = complete withering, 0% = no damage", "method": "(§1) The formulations of active compounds were obtained as emulsions by mixing 1 part by weight of the active compound with the carrier and emulsifier in the described amounts. The formulations were diluted with water so as to adjust a prescribed dosage.\nIn a greenhouse each three paddy rice seedlings (cultivar: Nihonbare) were transplanted (transplantation depth 2 cm) in each pot filled with 500 cm^2 of paddy field soil and covered with water in about 2 to 3 cm depth. After 5 days from the transplantation, prescribed diluted solutions of the formulations of the respective active compounds obtained in the same manner as in Test Example 1 were applied to the water surface of each pot. After the treatment, the water depth of 3 cm was kept. The herbicide damage was investigated after 3 weeks of the treatment. The herbicide damage was rated as 100% in the case of complete withering and 0% in the case of no herbicide damage. When the herbicide damage was 20% or lower, the safety as a paddy rice herbicide was evaluated to be excellent. As the representative examples, the test results of the compound Nos. 3, 4, 5, 6, 7, 70, 115, 127 and 128, and comparative compound C-2 are shown in Table 9."}, "[2]": {"system": "Lindernia procumbens Philcox (resistant to sulfonylurea type herbicide)", "experiment": "Herbicidal efficacy test to weeds resistant to sulfonylurea type herbicide (Test Example 1, applied on water surface, Table 8)", "conditions": "60 g ai/ha, applied on water surface at beginning of sprouting, rated after 3 weeks; 100% = complete withering, 0% = no effect", "method": "(§2) Preparation of formulation of active compound\n(§3) Carrier: DMF 5 parts by weight\n(§4) Emulsifier: benzyloxypolyglycol ether 1 part by weight\nas §1\n(§5) In a greenhouse respective seeds of Scirpus juncoides Roxburgh (from Hokkaido, Japan) and Lindernia procumbens Philcox (from Saitama, Japan), which are confirmed to have resistance to a sulfonylurea type herbicide, were inoculated in pots filled with 500 cm^2 of paddy field soil and water was poured to the pot in about 2 to 3 cm depth. At the beginning of sprouting of the weeds, prescribed diluted solutions of the formulations of the respective active compounds obtained by the above-mentioned manner were applied on the water surface. After the treatment water depth of 3 cm was kept. The herbicidal effect was investigated after 3 weeks of the treatment. The herbicidal effect was rated as 100% in the case of complete withering and 0% in the case of no herbicidal effect. When the herbicidal effect was 80% or higher, the practical effectiveness as herbicides is recognized. As the representative examples, the test results of the compound Nos. 1, 3, 4, 5, 6, 7, 13, 70, 127, 128 and 130 are shown in Table 8."}, "[3]": {"system": "Scirpus juncoides Roxburgh (resistant to sulfonylurea type herbicide)", "experiment": "Herbicidal efficacy test to weeds resistant to sulfonylurea type herbicide (Test Example 1, applied on water surface, Table 8)", "conditions": "60 g ai/ha, applied on water surface at beginning of sprouting, rated after 3 weeks; 100% = complete withering, 0% = no effect", "method": "as §2, §3, §4, §1, §5"}},
  "data": [
    {"smiles": "COc1nc(OC)nc(C(=O)c2cccc(OC)c2N(C)S(=O)(=O)C(F)F)n1", "note": "[compound 115]", "values": [
      {"measurement": "Herbicide damage on transplanted paddy rice", "setting": "[1]", "value": 0, "unit": "%"}
    ]},
    {"smiles": "COc1cc(OC)nc(C(O)c2ccc(F)cc2NS(=O)(=O)C(F)F)n1", "note": "(stereo not shown) [compound 5]", "values": [
      {"measurement": "Herbicidal effect to sulfonylurea resistant weeds: Lindernia procumbens Philcox (from Saitama pref.)", "setting": "[2]", "value": 100, "unit": "%"},
      {"measurement": "Herbicidal effect to sulfonylurea resistant weeds: Scirpus juncoides Roxburgh (from Hokkaido)", "setting": "[3]", "value": 100, "unit": "%"},
      {"measurement": "Herbicide damage on transplanted paddy rice", "setting": "[1]", "value": 0, "unit": "%"}
    ]},
    {"smiles": "COCc1cccc(C(O)c2nc(OC)cc(OC)n2)c1NS(=O)(=O)C(F)F", "note": "(stereo not shown) [C-2, reference compound]", "values": [
      {"measurement": "Herbicide damage on transplanted paddy rice", "setting": "[1]", "value": 30, "unit": "%"}
    ]},
    {"smiles": "COc1cc(OC)nc(C(O)c2ccc(F)c(F)c2NS(=O)(=O)C(F)F)n1", "note": "(stereo not shown) [Compound No. 3, 2,3-Difluoro-6-[1-(4,6-dimethoxypyrimidin-2-yl)-1-hydroxymethyl]-N-difluoromethanesulfonanilide]", "values": [
      {"measurement": "Herbicidal effect to sulfonylurea resistant weeds: Lindernia procumbens Philcox (from Saitama pref.)", "setting": "[2]", "value": 100, "unit": "%"},
      {"measurement": "Herbicidal effect to sulfonylurea resistant weeds: Scirpus juncoides Roxburgh (from Hokkaido)", "setting": "[3]", "value": 100, "unit": "%"},
      {"measurement": "Herbicide damage on transplanted paddy rice", "setting": "[1]", "value": 10, "unit": "%"}
    ]},
    {"smiles": "COc1cc(OC)nc(C(O)c2c(F)cccc2NS(=O)(=O)C(F)F)n1", "note": "(stereo not shown) [compound 6]", "values": [
      {"measurement": "Herbicidal effect to sulfonylurea resistant weeds: Lindernia procumbens Philcox (from Saitama pref.)", "setting": "[2]", "value": 100, "unit": "%"},
      {"measurement": "Herbicidal effect to sulfonylurea resistant weeds: Scirpus juncoides Roxburgh (from Hokkaido)", "setting": "[3]", "value": 100, "unit": "%"},
      {"measurement": "Herbicide damage on transplanted paddy rice", "setting": "[1]", "value": 10, "unit": "%"}
    ]},
    {"smiles": "COc1cc(OC)nc(C(O)c2ccc(Cl)c(F)c2NS(=O)(=O)C(F)F)n1", "note": "(stereo not shown) [compound 4, 2-fluoro-3-chloro-6-[1-(4,6-dimethoxypyrimidin-2-yl)-1-hydroxymethyl]-N-difluoromethanesulfonanilide]", "values": [
      {"measurement": "Herbicidal effect to sulfonylurea resistant weeds: Lindernia procumbens Philcox (from Saitama pref.)", "setting": "[2]", "value": 100, "unit": "%"},
      {"measurement": "Herbicidal effect to sulfonylurea resistant weeds: Scirpus juncoides Roxburgh (from Hokkaido)", "setting": "[3]", "value": 100, "unit": "%"},
      {"measurement": "Herbicide damage on transplanted paddy rice", "setting": "[1]", "value": 10, "unit": "%"}
    ]},
    {"smiles": "COc1cc(OC)nc(C(O)c2ccc(F)c(C)c2NS(=O)(=O)C(F)F)n1", "note": "(stereo not shown) [compound 70]", "values": [
      {"measurement": "Herbicidal effect to sulfonylurea resistant weeds: Lindernia procumbens Philcox (from Saitama pref.)", "setting": "[2]", "value": 90, "unit": "%"},
      {"measurement": "Herbicidal effect to sulfonylurea resistant weeds: Scirpus juncoides Roxburgh (from Hokkaido)", "setting": "[3]", "value": 100, "unit": "%"},
      {"measurement": "Herbicide damage on transplanted paddy rice", "setting": "[1]", "value": 10, "unit": "%"}
    ]},
    {"smiles": "CCOc1cccc(C(O)c2nc(OC)cc(OC)n2)c1NS(=O)(=O)C(F)F", "note": "(stereo not shown) [compound 130]", "values": [
      {"measurement": "Herbicidal effect to sulfonylurea resistant weeds: Lindernia procumbens Philcox (from Saitama pref.)", "setting": "[2]", "value": 100, "unit": "%"},
      {"measurement": "Herbicidal effect to sulfonylurea resistant weeds: Scirpus juncoides Roxburgh (from Hokkaido)", "setting": "[3]", "value": 100, "unit": "%"}
    ]}
  ]
}
